# Literature values as cited in patent publication US20260199330A1, “MEDICAL METHOD AND USE” (ViiV Healthcare UK (No.3) Limited, priority 2024, published 2026).
# Experiments:
# [1] = oral 60 mg once daily for 2 years, LAI116482 (LATTE)
# [2] = supratherapeutic oral CAB 150 mg q12 h×3 doses, TQT study
structure (smiles),measurement,setting,value
"C[C@H]1CO[C@@H]2Cn3cc(C(=O)NCc4ccc(F)cc4F)c(=O)c(O)c3C(=O)N12 [Cabotegravir, (3S, 11aR)-N-((2,4-difluorophenyl)methyl)-6-hydroxy-3-methyl-5,7-dioxo-2,3,5, 11,11a-hexahydro(1,3)oxazolo(3,2-a)pyrido(1,2-d)pyrazine-8-carboxamide]","median (steady state) Cmax, long-term safety threshold",[1],13100 ng/mL
same,"geometric mean Cmax, short-term safety threshold",[2],22500 ng/mL
